Assay results: a melting point compilation (Tetko et al.; mined from patent text by program, amines drawn as free bases though some values may be those of a salt)

Compound	melting point [°C]
CCN(CC)CCNC(=O)c1ccc(N(S(C)(=O)=O)S(C)(=O)=O)cc1OC	144
COc1cc2c(cc1N1CCN(CC3=CC4=CCSC4=C3)CC1)OCC2	186 to 190
COc1ccc(CN2CCc3cc(O)ccc3C2)cc1OC	119 to 122
CC(C)(C)C(=O)OCCc1c(-c2ccccc2)nc(N)n2ncnc12	160
COC(=O)[C@H](CC(C)C)NC(=O)CCC(=O)Nc1ccc(Nc2ccccc2)cc1	134 to 135
CCc1nc2c(N)nc(C)c(C)c2n1CCOCCN	152 to 154
CN(C)c1ccc(NC(=O)N2CCC(Nc3nccc(-c4c(-c5ccc(F)cc5)nc5occn45)n3)CC2)cc1	225 to 227
CC(Oc1ccc([N+](=O)[O-])cc1[N+](=O)[O-])C(=O)O (stereo not given)	167 to 171
c1cncc(-c2cccc(-n3cnc4cc(-c5ccoc5)cnc43)c2)c1	191 to 192
COc1cc(COc2nn(-c3ccccc3)cc2/C=C/S(C)=O)ccc1OCc1nc(-c2ccco2)oc1C (stereo not given)	156 to 157
COc1ccc(C(=O)Nc2c(C)c(C)c3c(c2C)C(c2ccc(C(C)C)cc2)C(C)(C)O3)cc1 (stereo not given)	202 to 205
COc1ccc(N2CCN(c3ccc(-n4c(C)nn(CC(=O)c5ccc(Cl)cc5)c4=O)cc3)CC2)cc1	230
C=C1CC(c2ccc(Br)s2)N(C)C1=O (stereo not given)	177 to 180
CCCCCCc1ccc(OCCCCCC(=O)Nc2ccc(O)cc2)cc1O	128
CCc1cc2cc(O)c(Cl)c(Cl)c2s1	69 to 70
CC(=O)c1ccc(NC(=O)NCCN(CCNC(=O)Nc2ccc(C(C)=O)cc2)CCNC(=O)Nc2ccc(C(C)=O)cc2)cc1	189 to 190
O=C(O)Cc1ccc(OCCc2ccccc2)c(OCc2ccccc2)c1	116 to 119
Cc1nnc2n1-c1ccc(C#CCN3Cc4ccccc4C3=O)cc1C(c1ccccc1F)=NC2	165 to 168
C=C(C)C(=O)NOC(=O)C(=C)C	55
COc1ccc(C2CCCC(=O)O2)cc1 (stereo not given)	57.5 to 59.5
COC(=O)c1cc(C(C)=O)c(C(F)(F)F)cc1N	118 to 121

Compound	melting point [°C]
CCCCNC(=O)c1cccc(S(=O)(=O)NC(=O)c2ccc(C(=O)NCC(=O)O)nc2)c1	220
CCCCNC(=O)CNC(=O)CN1CCCC1=O	105 to 106
CC1(C)C(=O)C(C)(C)c2cc3[nH]c(S(=O)Cc4ccccn4)nc3cc21 (stereo not given)	201 to 203
O=C(NCc1ccncc1)c1ccnc(N2CCN(Cc3ccc(F)cc3)C2=O)c1	205 to 207
C=Cc1ccc(-c2ccc(OC(C)=O)cc2)cc1	119 to 122
Cn1ncc2[nH]c3ccc(NC(=O)c4ccccc4)cc3c(=O)c21	> 300
FC(F)(F)c1ccccc1NCC1=NNCCN1	97 to 98
Cc1c(Cl)nc(Br)n1S(=O)(=O)c1cccnc1Cl	144 to 146
Cc1cscc1NC(=S)Nc1cc(C(F)(F)F)cc(Cl)c1N	> 310
CONc1nc(Nc2ccc(C#N)cc2)nc(Oc2c(C)cc(C#N)cc2C)c1Br	185 to 186
CCOC(=O)Cc1ccc(NC(=O)C(CCO)NS(=O)(=O)c2ccc(Cl)cc2)cc1 (racemic)	164 to 167
O=C(O)c1cc(=O)c2cccc(/C=C/c3ccc(OCCCCc4ccc(F)cc4)cc3)c2o1	161 to 162
CCNC(=O)CCc1cnoc1-c1ccccc1	75 to 76
CCOC(=O)c1cnn(-c2cccc(S(=O)(=O)N(C)C)n2)c1S(N)(=O)=O	102 to 104
CC(=O)OCCCN(C)CCCN(C)C(=O)[C@@H]1CCCN1S(=O)(=O)c1ccc(Cl)c(COc2cccc3c(-n4ccnc4)cc(C)nc23)c1Cl	90
CC(C)[C@H](NC(=O)CCC(=O)c1ccccc1)C(=O)O	118 to 120
CCc1ccc2ncc(C(=O)N(O)c3ccccc3)c(O)c2c1	218
CC(C)Nc1cccnc1N1CCN(C(=O)c2ccc(C(=O)NCCOCCO)cn2)CC1	93 to 95
O=C(Nc1ccc2cc(CN3CCCC3)ccc2c1)c1ccc(-c2ccc(Cl)cc2)nc1	270 to 274
NS(=O)(=O)c1cccc(C=O)c1	108 to 109
CN1Cc2c(-c3cccs3)ncn2-c2cccc(Cl)c2C1=O	222 to 223

Next, values leading:

melting point [°C]	Compound
112 to 113	O=CNC(Cc1ccccc1)C1CC(Cc2ccccc2)=NO1 (stereo not given)
194 to 196	OCCCN1Cc2cccc3c2N(CC3)c2ccccc21
265 to 274	Cc1ccc(S(=O)(=O)N2CC3C(C2)C3Nc2ncc3cc(-c4ccccc4Cl)c(=O)n(C4CC4)c3n2)cc1 (stereo not given)
150 to 152	O=C(CCCCCCCc1ccccc1)NNC(=O)c1ccc(O)cc1
139 to 142	CCc1nc2c(C)cc(C)nc2n1Cc1ccc(-c2ccccc2C(=O)NN)cc1
236 to 238	Cc1nc(-c2ccccc2)nc(N2c3ccccc3CC2C(=O)N(C)c2ccc(Cl)cc2)c1C (stereo not given)
46 to 47	CCOC(=O)c1nc(C(C)(C)C)nc2ccccc12
115 to 119	C#CCn1nc(-c2ccc(Cl)cc2)n(CC)c1=O
255 to 257	COC1CN(C(=O)c2cnn(C)c2C(=O)Nc2ccn3nc(-c4cccc(F)c4)nc3c2)C1
188 to 189	Nc1c(C(=O)c2cccnc2)[nH]c2cc(Cl)ccc12
177 to 179	CC(C)c1cccc(C(C)C)c1NC(=O)NCC1(c2ccc(-c3ccccc3)cc2)CCC1
103 to 105	Cc1ccc(-c2cc(NCCN(C)C)c3ccccc3n2)s1
135 to 141	COCc1c(C(=O)OC(C)C)ncc2[nH]c3ccc(OCc4ccccc4Cl)cc3c12
80 to 82	CCCCN(C)CCc1ccc(Nc2ncc3c(n2)-c2ccccc2C(c2ccccc2C(F)(F)F)C3)cc1 (stereo not given)
174 to 175	CCCn1cc(C(=O)NCc2ccc(Cl)cc2)c(=O)c2cc(CO)sc21
310	Cc1c(C#N)c(N)n(-c2ccc([N+](=O)[O-])cc2)c1C
47 to 49	C#CCN(C)Cc1ccc([N+](=O)[O-])cc1
113 to 114	CCOC(=O)c1cn(-c2ccc(Oc3ccccc3)cc2)cn1
75 to 77	C#CC(OC(c1ccccc1)(c1ccccc1)c1ccccc1)C(C)(C)CCCC (stereo not given)
165 to 168	CNC(=O)c1nc(-c2ccccc2)c(-c2ccc(=O)n(C(C)C)n2)s1
183 to 184	COC(=O)COc1c(Br)cc(-c2c3ccccc3c(Br)c3sc4ccccc4c23)cc1Br
202 to 204	COc1sc(-c2cc[nH]n2)c2c1C(=O)CC(C)(C)C2
118	CCOC(=O)C(C)(C)Oc1ccc(-c2ccc(CCNC(=O)c3ccc(OC)c(OC)c3)cc2)cc1
64 to 66	O=C(O)C[C@@]1(C[N+](=O)[O-])C[C@H]2CCC[C@H]21
121 to 124	CCC(NC(=O)Cc1ccccc1)C(=NNC(N)=S)c1ccccc1 (stereo not given)
198	COc1cc(N2CCCC2)ccc1CN1C(=O)C(C)(c2ccccc2Cl)c2cc(Cl)ccc21 (stereo not given)
158 to 159	Cc1cc(-c2oncc2CCC(=O)O)ccc1Cl
173 to 176	CNc1nc(N2CCN(C)CC2)nc2ccc(Cl)cc12
